Assay results from patent publication US8828451B2, “Akt sensitization of cancer cells” (University of South Florida, priority 2006, dated 2014).

Assays:
A2780CP cells [1] = conditions: drug individually or combination of both drugs
C-13 cells [2] = conditions: C-13, drug individually or combination of both drugs
A2780CP cells [3] = test: MTT cell survival assay, CDDP-resistant A2780CP cells; conditions: increasing amounts of CDDP alone, MTT 24 hr
Description: (§1) CDDP-resistant ovarian cancer cell lines A2780CP and C-13 were treated with CDDP at indicated concentrations alone, or in combination with 10 μM API-2. Cell survival was determined 24 hr later by MTT assay.
API-2 was further investigated to determine whether it can overcome CDDP resistance by blocking Akt signaling pathways. A2780CP and C-13 cells were treated with increasing amounts of CDDP alone or in combination with 10 μM API-2.

C-13 cells [4] = test: MTT cell survival assay, CDDP-resistant C-13 cells; conditions: C-13, increasing amounts of CDDP alone, MTT 24 hr
Description: as §1
A2780CP and C-13 cells were treated with increasing amounts of CDDP alone or in combination with 10 μM API-2.

[5] = tested on: MCF-7 human breast cancer; test: Cell number growth over six days, MCF-7 cells; type: cell-based; conditions: MCF-7, 25 nM RAD001, 5 μM API-2 or combination
Akt phosphorylation = test: Western blot of MCF-7 lysates for phosphorylated Akt, S6, p70-S6K; type: cell-based, human
Description: (A) OVCAR-3 human ovarian cancer and (B) MCF-7 human breast cancer cell lines were treated with mTOR inhibitors rapamycin (OVCAR-3 cells only) or RAD001 (MCF-7 cells only). Cell lysates were probed for phosphorylated and total Akt, and phosphorylated and total S6 at the indicated time points. […] Akt substrate FKHRL1, an apoptotic protein, was also detected.
(A) OVCAR-3 and (B) MCF-7 cells were treated with rapamycin (OVCAR-3 cells only), RAD001 (MCF-7 cells only), API-2, or a combination of API-2 with either rapamycin or RAD001. Akt phosphorylation increased in both cell lines after either rapamycin or RAD001 treatment.
Results of Western Blot for phosphorylated Akt (p-Akt) indicate C-13 and A2780CP cells had high levels of p-Akt. Further, cell survivability after chemotherapy appears directly connected to Akt up-regulation as C-13 had both the highest p-Akt and survivability. […] This caused an increase in p-Akt within 1 hour of treatment, confirming a relationship between p-Akt and cell survival after chemotherapy.

CC(=O)O[C@H]1C(=O)[C@@]2(C)[C@H]([C@H](OC(=O)c3ccccc3)[C@]3(O)C[C@H](OC(=O)[C@H](O)[C@@H](NC(=O)c4ccccc4)c4ccccc4)C(C)=C1C3(C)C)[C@]1(OC(C)=O)CO[C@@H]1C[C@@H]2O [Taxol]
apoptosis (Capase-Glo 3/7) (A2780CP cells [1]): increased apoptosis slightly
apoptosis (Capase-Glo 3/7) (C-13 cells [2]): increased apoptosis slightly

[Cl][Pt+2][Cl].[NH2-].[NH2-] [CDDP, cis-Diammine-dicholoroplatinum(II)]
effect on cell survival (A2780CP cells [3]): no significant effect on cell survival
effect on cell survival (C-13 cells [4]): no significant effect on cell survival

CO[C@H]1C[C@@H]2CC[C@@H](C)[C@@](O)(O2)C(=O)C(=O)N2CCCC[C@H]2C(=O)O[C@H]([C@H](C)C[C@@H]2CC[C@@H](OCCO)[C@H](OC)C2)CC(=O)[C@H](C)/C=C(\C)[C@@H](O)[C@@H](OC)C(=O)[C@H](C)C[C@H](C)/C=C/C=C/C=C/1C [RAD001]
cell growth (cell numbers) [5]: inhibited cell growth
Akt phosphorylation (Akt phosphorylation; MCF-7): increased with longer exposure time
phosphorylated S6 (Akt phosphorylation; MCF-7, indicated time points): decreased with exposure
